Test results from US4278686A, “Carbapenum derivatives, a process for their preparation and their use in pharmaceutical compositions and intermediates” (Beecham Group Limited, priority 1978, dated 1981).
Where two headings read alike, the source gives them in different places.

What was measured:
Assay type in all cases: cell-based
[1] = tested on: Staphylococcus aureus 1517; test: minimum inhibitory concentration, Staphylococcus aureus 1517 (DST agar+10% horse blood)
Description: (§1) The minimum inhibitory concentrations (MIC) of the compound (e54) was determined using a standard DST agar+10% horse blood substrate. The tests used an undiluted inoculum of bacteria. […]
(§2) The minimum inhibitory concentrations (MIC) of this compound was determined using a standard DST agar+10% horse blood substrate.
(§3) The minimum inhibitory concentrations (MIC) of this compound was determined using a standard DST agar+10% horse blood substrate. The tests used an undiluted inoculum of bacteria.

[2] = tested on: Pseudomonas aeruginosa A; test: minimum inhibitory concentration, Pseudomonas aeruginosa A (DST agar+10% horse blood)
Description: as §1, §2, §3

[3] = tested on: Proteus vulgaris WO91; test: minimum inhibitory concentration, Proteus vulgaris WO91 (DST agar+10% horse blood)
Description: as §1, §2, §3

[4] = tested on: Klebsiella aerogenes A; test: minimum inhibitory concentration, Klebsiella aerogenes A (DST agar+10% horse blood)
Description: as §1, §2, §3

[5] = tested on: Staphylococcus aureus Russell; test: minimum inhibitory concentration, Staphylococcus aureus Russell (DST agar+10% horse blood)
Description: as §1, §2, §3

[6] = tested on: Shigella sonnei MB 11967; test: minimum inhibitory concentration, Shigella sonnei MB 11967 (DST agar+10% horse blood); conditions: MB11967
Description: as §1, §2, §3

[7] = tested on: Proteus rettgeri WM16; test: minimum inhibitory concentration, Proteus rettgeri WM16 (DST agar+10% horse blood); conditions: Providencia rettgeri
Description: as §1, §2, §3

[8] = tested on: Serratia marcescens US20; test: minimum inhibitory concentration, Serratia marcescens US20 (DST agar+10% horse blood)
Description: as §1, §2, §3

[9] = tested on: Proteus mirabilis C977; test: minimum inhibitory concentration, Proteus mirabilis C977 (DST agar+10% horse blood)
Description: as §1, §2, §3

[10] = tested on: Escherichia coli 0111; test: minimum inhibitory concentration, Escherichia coli 0111 (DST agar+10% horse blood)
Description: as §1, §2, §3

[11] = tested on: Bacillus subtilis A; test: minimum inhibitory concentration, Bacillus subtilis A (DST agar+10% horse blood)
Description: as §1, §2, §3

[12] = tested on: Streptococcus pneumoniae CN33; test: minimum inhibitory concentration, Streptococcus pneumoniae CN33 (DST agar+10% horse blood)
Description: as §1, §2, §3

[13] = tested on: E. coli ESS; test: minimum inhibitory concentration, E. coli ESS (DST agar+10% horse blood); conditions: Escherichia coli
Description: as §1, §2, §3

[14] = tested on: Salmonella typhimurium CT10; test: minimum inhibitory concentration, Salmonella typhimurium CT10 (DST agar+10% horse blood); conditions: Salmonella enterica
Description: as §1, §2, §3

[15] = tested on: Escherichia coli JT 39; test: minimum inhibitory concentration, Escherichia coli JT 39 (DST agar+10% horse blood); conditions: JT39
Description: as §1, §2, §3

[16] = tested on: Staphylococcus aureus Oxford; test: minimum inhibitory concentration, Staphylococcus aureus Oxford (DST agar+10% horse blood)
Description: as §1, §2, §3

[17] = tested on: Proteus morganii I580; test: minimum inhibitory concentration, Proteus morganii I580 (DST agar+10% horse blood); conditions: Morganella morganii
Description: The minimum inhibitory concentrations (MIC) of the compound (e54) was determined using a standard DST agar+10% horse blood substrate. The tests used an undiluted inoculum of bacteria.
Sodium (5R,6S)-3-(2-acetamidoethylthio)--6-ethyl-7-oxo-1-azabicyclo[3.2.0]-hept-2-ene-2-carboxylate [drawing 60] p-Methoxycarbonylbenzyl (5R,6S)-3-(2-acetamidoethylthio)-6-ethyl-7-oxo-1-azabicyclo[3.2.0]hept-2-ene-2-carboxylate (e58) (18 mg) was added to the cathodic compartment of an H-type divided two-compartment electrochemical cell, with a mercury cathode and a platinum anode. The cell contained degassed 0.1 M n-Bu4 NI in dimethylformamide as electrolyte. The volume of the catholyte was about 15 ml [glacial acetic acid (about 10 mg) added] and the volume of the anolyte was about 8 ml. A potentiostat was employed to fix the potential of the cathode at -1.9 V with respect to the standard calomel electrode, and the initial current, about 56 mA, fell to about 15 mA after about 15 min. The catholyte was removed from the cell and the solvent was evaporated in vacuo. The residue was taken up in CH2 Cl2 (10 ml) and washed with water (10 ml). The aqueous phase was separated and washed with CH2 Cl2. The aqueous phase, containing the tetrabutylammonium salt corresponding to (e63) was passed through an Amberlite IR 120 (Na form) column (17×1 cm) and the eluate was reduced to low volume by evaporation in vacuo. The residue was passed through a Biogel P-2 column, to yield fractions containing sodium (5R,6S)-3-(2-acetamidoethylthio)-6-ethyl-7-oxo-1-azabicyclo[3.2.0]hept-2-ene-2-carboxylate (e63) having λmax 298 nm. The minimum inhibitory concentrations (MIC) of this compound was determined using a standard DST agar+10% horse blood substrate.
Sodium (5R,6S)-3-[(E)-2-acetamidoethenylthio]-6-ethyl-7-oxo-1-azabicyclo[3.2.0]hept-2-ene-2-carboxylate [drawing 68] p-Methoxycarbonylbenzyl (5R,6S)-3-[(E)-2-acetamidoethenylthio]-6-ethyl-7-oxo-1-azabicyclo[3.2.0]hept-2-ene-2-carboxylate (e72) (64 mg) in solution in 0.1 M (n-C4 H9)4 NBF4 in dry DMF was added to the cathodic compartment of a divided cylindrical electrochemical cell, with a mercury cathode and platinum anode. The volume of electrolyte in the cathodic compartment was about 25 ml, and in the anodic compartment about 10 ml. Acetic acid (12 mg) was added to the cathodic compartment and ethanol (250 mg) was added to the anodic compartment. The cell was degassed by passing argon for 30 min. The potentiostat was engaged to maintain the potential of the cathode at -1.9 V w.r.t. standard calomel electrode. The initial current (40 mA) fell to about 5 mA after 25 min. The solvent was removed from the catholyte by evaporation in vacuo and the residual oil was taken up in CH2 Cl2 (20 ml) and extracted with water (15 ml) containing sodium tetrafluoroborate (100 mg). The aqueous extract was washed with CH2 Cl2 and then passed down an Amberlite 1R 120 column (1×20 cm) in the sodium form. The volume of the eluate was reduced to about 5 ml by evaporation in vacuo and loaded onto a Biogel P-2 column (18×3 cm). Elution with water yielded fractions containing sodium (5R,6S)-3-[(E)-2-acetamidoethenylthio]-6-ethyl-7-oxo-1-azabicyclo[3.2.0]hept-2-ene-2-carboxylate (e73) λmax 308 nm. The minimum inhibitory concentrations (MIC) of this compound was determined using a standard DST agar+10% horse blood substrate.
Sodium (5R,6R)-3-[(E)-2-acetamidoethenylthio]-6-(1-benzylthioethyl)-7-oxo-1-azabicyclo[3.2.0]hept-2-ene-2-carboxylate [drawing 87] The least polar crystalline isomer of the ester (e93) (40 mg) obtained in Example 70 was added to a mixture of 5% Pd on C (60 mg) in 20% aqueous dioxan (5 ml) which had been prehydrogenated for 0.5 h. Hydrogenation was continued for 4 h and the mixture was filtered through Celite after adding NaHCO3 (7 mg) and water (10 ml). The solution was concentrated to a volume of about 10 ml and was then washed with ethyl acetate (3×30 ml). […]

[18] = tested on: Citrobacter freundii E8; test: minimum inhibitory concentration, Citrobacter freundii E8 (DST agar+10% horse blood)
Description: as §1, §2, §3

[19] = tested on: Enterobacter cloacae N1; test: minimum inhibitory concentration, Enterobacter cloacae N1 (DST agar+10% horse blood); conditions: Enterobacter cloacae, Enterobactor cloacae N1
Description: as §1, §2, §3

[20] = tested on: Streptococcus faecalis I; test: minimum inhibitory concentration, Streptococcus faecalis I (DST agar+10% horse blood); conditions: Enterococcus faecalis
Description: as §1, §2, §3

[21] = tested on: Streptococcus pyogenes CN10; test: minimum inhibitory concentration, Streptococcus pyogenes CN10 (DST agar+10% horse blood)
Description: as §1, §2, §3

[22] = Proteus morganii I580, DST agar+10% horse blood, read-out: MIC

Compound	MIC [1] [µg/mL]	MIC [2] [µg/mL]	MIC [3] [µg/mL]	MIC [4] [µg/mL]	MIC [5] [µg/mL]	MIC [6] [µg/mL]	MIC [7] [µg/mL]	MIC [8] [µg/mL]	MIC [9] [µg/mL]	MIC [10] [µg/mL]	MIC [11] [µg/mL]	MIC [12] [µg/mL]	MIC [13] [µg/mL]	MIC [14] [µg/mL]	MIC [15] [µg/mL]	MIC [16] [µg/mL]	MIC [18] [µg/mL]	MIC [19] [µg/mL]	MIC [20] [µg/mL]	MIC [21] [µg/mL]	other results
CC[C@@H]1C(=O)N2C(C(=O)[O-])=C(S/C=C/NC(C)=O)C[C@H]12.[Na+] [e73, sodium (5R,6S)-3-[(E)-2-acetamidoethenylthio]-6-ethyl-7-oxo-1-azabicyclo[3.2.0]hept-2-ene-2-carboxylate]	> 40	> 40	10	2.5	2.5	2.5	10	5	10	2.5	1.2	≤ 0.1	0.3	1.2	10	0.6	2.5	2.5	40		MIC [17, 22]: 5 µg/mL
CC(=O)N/C=C/SC1=C(C(=O)[O-])N2C(=O)[C@H](C(C)SCc3ccccc3)[C@H]2C1.[Na+] (stereo partly drawn) [e94, Sodium (5R,6R)-3-[(E)-2-acetamidoethenylthio]-6-(1-benzylthioethyl)-7-oxo-1-azabicyclo[3.2.0]hept-2-ene-2-carboxylate]	50	50	6.2	3.1	0.8	1.6	6.2	6.2	12.5	3.1	1.6	0.2	0.4	1.6	3.1	0.4	6.2	3.1	25	0.4	MIC [17, 22]: 6.2 µg/mL
C=CCSC(C)[C@H]1C(=O)N2C(C(=O)[O-])=C(S/C=C/NC(C)=O)C[C@H]12.[Na+] (stereo partly drawn) [e96, Sodium (5R,6R)-3-[(E)-2-acetamidoethenylthio]-6-(1-allylthioethyl)-7-oxo-1-azabicyclo[3.2.0]hept-2-ene-2-carboxylate]	12.5	> 100	25	6.2	1.6	25	50	50	100	50	1.6	≤ 0.2	1.6	25	25	0.8	50	25	50	0.4	MIC ([17]; I580): 50 µg/mL
CC(=O)N/C=C/SC1=C(C(=O)[O-])N2C(=O)[C@H](C(C)SCCNC(C)=O)[C@H]2C1.[Na+] (stereo partly drawn) [e98, Sodium (5R,6R)-3-[(E)-2-acetamidoethenylthio]-6-[1-(2-acetamidoethylthio)ethyl]-7-oxo-1-azabicyclo[3.2.0]hept-2-ene-2-carboxylate]	12.5	> 50	12.5	5	2.5	5	12.5	12.5	12.5	5	2.5	0.2	1.2	2.5	5	1.2	5	5	50	0.5	MIC ([17]; I580): 25 µg/mL
